# Laboratory results reported in patent publication US5536847A, “4-desoxy-4-epipodophyllotoxin derivative or pharmaceutically acceptable salt thereof” (Taiho Pharmaceutical Co. Ltd., priority 1991, dated 1996).
# System: P388 mouse leukemia cell line
# Experiment: Cytocidal effect on P388 mouse leukemia cells (crystal violet cytometry)
# Format: cell-based
# Conditions: 72 h; P388 mouse leukemia cells, 1×10^3 cells/well, 3 days incubation with compound; read-out: ED50 (concentration causing a 50% decrease in cell count as compared with the control)
# Protocol: A 96-well plate was inoculated with 1×10^3 cells/well of P388 mouse leukemia cell line and incubated for 24 hours. The test compound was dissolved in dimethylformamide and the solution was diluted with medium to various concentrations and added to respective wells. The plate was further incubated for 3 days, after which it was fixed with glutaraldehyde and stained with crystal violet for cytometry. The cytocidal effect of each compound was expressed as the concentration causing a 50% decrease in cell count (ED50) as compared with the control.
row,Structure (SMILES),IC50 [nM]
1,COc1cc(C2c3cc4c(cc3C(CCN(C)CCN(C)C)C3COC(=O)C23)OCO4)cc(OC)c1O (stereo not drawn) [Compound 35],1
2,CCN(CC)CCN(C)CCC1c2cc3c(cc2C(c2cc(OC)c(O)c(OC)c2)C2C(=O)OCC12)OCO3 (stereo not drawn) [Compound 47],6.3

# Same assay, conditions: Mus musculus, P388, 72 h, read-out: ED50 (concentration causing a 50% decrease in cell count as compared with the control)
row,Structure (SMILES),IC50 [nM]
1,"COc1cc(C2c3cc4c(cc3C(CC=O)C3COC(=O)C23)OCO4)cc(OC)c1OC(=O)OCc1ccccc1 (stereo not drawn) [Compound 3, 4-desoxy-4'-demethyl-4'-O-benzyloxycarbonyl-4-formylmethyl-4-epipodophyllotoxin]",450
2,COc1cc(C2c3cc4c(cc3C(CCN(C)N(C)C)C3COC(=O)C23)OCO4)cc(OC)c1O (stereo not drawn) [Compound 33],20
3,"COc1cc(C2c3cc4c(cc3C(CC=O)C3COC(=O)C23)OCO4)cc(OC)c1O (stereo not drawn) [Compound 5, 4-desoxy-4'-demethyl-4-formylmethyl-4-epipodophyllotoxin]",120
4,COc1cc(C2c3cc4c(cc3C(CCN(C)N3CCN(C)CC3)C3COC(=O)C23)OCO4)cc(OC)c1O (stereo not drawn) [Compound 53],4.3
5,COc1cc(C2c3cc4c(cc3C(CCN3CCC(N5CCCCC5)CC3)C3COC(=O)C23)OCO4)cc(OC)c1O (stereo not drawn) [Compound 45],3.3
6,CCCCCCN(C)CCC1c2cc3c(cc2C(c2cc(OC)c(O)c(OC)c2)C2C(=O)OCC12)OCO3 (stereo not drawn) [Compound 38],19
7,COc1cc(C2c3cc4c(cc3C(CCN3CCCCC3)C3COC(=O)C23)OCO4)cc(OC)c1O (stereo not drawn) [Compound 44],12
8,COc1cc(C2c3cc4c(cc3C(CCN(C)CCN3CCCCC3)C3COC(=O)C23)OCO4)cc(OC)c1O (stereo not drawn) [Compound 43],4.1
9,COc1cc(C2c3cc4c(cc3C(CCNCCN(C)C)C3COC(=O)C23)OCO4)cc(OC)c1O (stereo not drawn) [Compound 52],40
10,"COc1cc(C2c3cc4c(cc3C(CCCN(C)C)C3COC(=O)C23)OCO4)cc(OC)c1O (stereo not drawn) [Compound 28, 4-desoxy-4'-demethyl-4-(3-N,N-dimethylamino-1-propyl)-4-epipodophyllotoxin]",12
11,COc1cc(C2c3cc4c(cc3C(CCN3CCN(C)CC3)C3COC(=O)C23)OCO4)cc(OC)c1O (stereo not drawn) [Compound 34],3

# System: L1210 mouse leukemia cell line
# Experiment: Life-prolonging effect in CDF1 mice intraperitoneally transplanted with L1210 leukemia
# Format: in vivo
# Conditions: 2.5 mg/kg/day i.p., 5 days; L1210, male CDF1 mice; vs vehicle group
# Protocol: L1210 mouse leukemia cell line, 1×10^5 cells/mouse, was intraperitoneally transplanted into 7-weeks-old male CDF1 mice (6 per group). The test compound, in the varying amounts shown below in Table 4, was dissolved in physiological saline containing 3.5% of dimethyl sulfoxide and 6.5% of Tween 80 and the solution was intraperitoneally administered for 5 days following the transplantation of cells for a total of 5 times. The percent life-prolonging effect of the compound was determined by comparison with a group given physiological saline containing 3.5% of dimethyl sulfoxide and 6.5% of Tween 80 only.
row,Structure (SMILES),Life-prolonging effect [%]
1,COc1cc(C2c3cc4c(cc3C(CCN3CCC(N5CCCCC5)CC3)C3COC(=O)C23)OCO4)cc(OC)c1O (stereo not drawn) [Compound 45],231

# Same assay, conditions: 5 mg/kg/day i.p., 5 days; L1210, male CDF1 mice; vs vehicle group
row,Structure (SMILES),Life-prolonging effect [%]
1,COc1cc(C2c3cc4c(cc3C(CCN(C)CCN3CCCCC3)C3COC(=O)C23)OCO4)cc(OC)c1O (stereo not drawn) [Compound 43],257

# Same assay, conditions: 10 mg/kg/day i.p., 5 days; L1210, male CDF1 mice; vs vehicle group
row,Structure (SMILES),Life-prolonging effect [%]
1,COc1cc(C2c3cc4c(cc3C(CCN3CCOCC3)C3COC(=O)C23)OCO4)cc(OC)c1O (stereo not drawn) [Compound 36],81

# System: not given
# Experiment: not given
# Conditions: background art statement; cited from earlier work
row,Structure (SMILES),serious adverse reactions
1,COc1cc([C@@H]2c3cc4c(cc3[C@@H](O[C@@H]3O[C@@H]5CO[C@@H](c6cccs6)O[C@H]5[C@H](O)[C@H]3O)[C@H]3COC(=O)[C@H]23)OCO4)cc(OC)c1O [teniposide],"may cause serious adverse reactions including leukopenia, thrombopenia, alopecia, nausea and vomiting"
2,COc1cc([C@@H]2c3cc4c(cc3[C@@H](O[C@@H]3O[C@@H]5CO[C@@H](C)O[C@H]5[C@H](O)[C@H]3O)[C@H]3COC(=O)[C@H]23)OCO4)cc(OC)c1O [etoposide],"may cause serious adverse reactions including leukopenia, thrombopenia, alopecia, nausea and vomiting"
